Key:
[1] = Hansen solubility parameters of blends, single components, MEK and acetone; details: MEK, acetone, δ^2 = δD^2 + δP^2 + δH^2
Description: In some embodiments, a solvent composition according to the present disclosure includes an acetate ester, such as MA, EA, or TBAc, in combination with additional reagents to increase dispersion and decrease hydrogen bonding and/or to decrease the polarity of the composition. […] Accordingly, in some embodiments, a solvent composition according to the present disclosure may be formulated according to Hansen solubility parameters (HSP) (Hansen, 1999) and may have: a dispersion parameter (δD) between about 7.7 and about 8.5; a polarity parameter (δP) between about 4 and about 5.2; and a hydrogen bonding parameter (δH) between about 3.0 and about 3.6. Such parameters result in a Hansen Solubility Parameter (δ MPa) of about 9.0 to about 10.4, where δ^2=δD^2+δP^2+δH^2.
In alternative embodiments, a solvent composition according to the present disclosure may have: a dispersion parameter (δD) between about 7.5 and about 8; a polarity parameter (δP) between about 3 and about 4; and a hydrogen bonding parameter (δH) between about 3.2 and about 4. Such parameters result in a Hansen Solubility Parameter (δ MPa) of about 8.68 to about 9.79, where δ^2=δD^2+δP^2+δH^2. In some embodiments, a solvent composition according to the present disclosure includes a composition with HSP values similar to those of acetone. […]

[2] = reference solvents; cited from earlier work
[3] = single components, MEK, acetone; cited from earlier work
[4] = Evaporation rate relative to n-butyl acetate (=1); format: physicochemical; details: Example 2
Description: Evaporation rates can be expressed relative to the evaporation of n-butyl acetate (=1), as a standard.

[5] = published value; cited from earlier work
[6] = cited from earlier work

Compound | δ (MPa) [1] [MPa] | flash point [2] [°C] | δD (dispersion) [3] | δH (hydrogen bonding) [3] | δP (polarity) [3] | evaporation rate [4] | published MEK ER [5] | solubility in water ([6]; room temperature) [%] | stability ([6]; strong aqueous bases or aqueous acids)
CC(C)=O [Acetone, acetone, reference compound] | 9.929 | −20 | 7.7 | 3.5 | 5.2 | – | – | – | –
COC(=O)OC [DMC, dimethyl carbonate] | – | – | 8.5 | 1.9 | 4.7 | – | – | – | –
CCOC(C)=O [Ethyl acetate, ethyl acetate] | – | – | 7.7 | 3.5 | 2.3 | – | – | – | –
CCC(C)=O [MEK, methyl ethyl ketone, reference compound] | – | −9 | 7.82 | 2.49 | 4.4 | 3.8 | 4.0 | – | –
COC(C)=O [Methyl acetate, methyl acetate] | – | −4 | 7.58 | 3.72 | 3.52 | – | – | 25 | not stable
CC1COC(=O)O1 (stereo not drawn) [PC, propylene carbonate] | – | – | 9.8 | 2 | 8.8 | – | – | – | –
FC(F)(F)c1ccc(Cl)cc1 [PCBTF, parachlorobenzotrifluoride] | – | – | 8.8 | 1.9 | 2.9 | – | – | – | –
CC(=O)OC(C)(C)C [TBA, tert-butyl acetate] | 7.765 | – | 7 | 2.9 | 1.7 | – | – | – | –
